Assay results published in paper PMC9856672, “SGC-CAMKK2-1: A Chemical Probe for CAMKK2” (Cells, 2023).

Legend:
PAK1 = molecular target: T1, PAK1 (Homo sapiens, UniProt Q13153); assay: KINOMEscan at 1 μM, PAK1; type: binding; details: 1000 nM, read-out: Percent Control
T1 construct: purchased Eurofins DiscoverX KINOMEscan
From the text: (§1) Supplement cells-12-00287-s001.zip/File S2. KinomeScan data for the CAMKK2 probe and negative control.xlsx, sheet "SGC-CAMKK2-1N" | column: Percent Control

PIK4CB = molecular target: T2, PIK4CB (Homo sapiens, UniProt Q9UBF8); assay: KINOMEscan at 1 μM, PIK4CB; type: binding; details: 1000 nM, read-out: Percent Control
T2 construct: purchased Eurofins DiscoverX KINOMEscan
From the text: as §1

WNK1 = molecular target: T3, WNK1 (Homo sapiens, UniProt Q9H4A3); assay: KINOMEscan at 1 μM, WNK1; type: binding; details: 1000 nM, read-out: Percent Control
T3 construct: purchased Eurofins DiscoverX KINOMEscan
From the text: as §1

SgK110 = molecular target: T4, SgK110 (Homo sapiens, UniProt P0C264); assay: KINOMEscan at 1 μM, SgK110; type: binding; details: 1000 nM, read-out: Percent Control
T4 construct: purchased Eurofins DiscoverX KINOMEscan
From the text: as §1

CDC2L1 = molecular target: T5, CDC2L1 (Homo sapiens, UniProt P21127); assay: KINOMEscan at 1 μM, CDC2L1; type: binding; details: 1000 nM, read-out: Percent Control
T5 construct: purchased Eurofins DiscoverX KINOMEscan
From the text: as §1

STK39 = molecular target: T6, STK39 (Homo sapiens, UniProt Q9UEW8); assay: KINOMEscan at 1 μM, STK39; type: binding; details: 1000 nM, read-out: Percent Control
T6 construct: purchased Eurofins DiscoverX KINOMEscan
From the text: as §1

p38-alpha = molecular target: T7, p38-alpha (Homo sapiens, UniProt Q16539); assay: KINOMEscan at 1 μM, p38-alpha; type: binding; details: 1000 nM, read-out: Percent Control
T7 construct: purchased Eurofins DiscoverX KINOMEscan
From the text: as §1

PLK1 = molecular target: T8, PLK1 (Homo sapiens, UniProt P53350); assay: KINOMEscan at 1 μM, PLK1; type: binding; details: 1000 nM, read-out: Percent Control
T8 construct: purchased Eurofins DiscoverX KINOMEscan
From the text: as §1

MAP4K3 = molecular target: T9, MAP4K3 (Homo sapiens, UniProt Q8IVH8); assay: KINOMEscan at 1 μM, MAP4K3; type: binding; details: 1000 nM, read-out: Percent Control
T9 construct: purchased Eurofins DiscoverX KINOMEscan
From the text: as §1

LIMK2 = molecular target: T10, LIMK2 (Homo sapiens, UniProt P53671); assay: KINOMEscan at 1 μM, LIMK2; type: binding; details: 1000 nM, read-out: Percent Control
T10 construct: purchased Eurofins DiscoverX KINOMEscan
From the text: as §1

MAP4K4 = molecular target: T11, MAP4K4 (Homo sapiens, UniProt O95819); assay: KINOMEscan at 1 μM, MAP4K4; type: binding; details: 1000 nM, read-out: Percent Control
T11 construct: purchased Eurofins DiscoverX KINOMEscan
From the text: as §1

CSNK1G1 = molecular target: T12, CSNK1G1 (Homo sapiens, UniProt Q9HCP0); assay: KINOMEscan at 1 μM, CSNK1G1; type: binding; details: 1000 nM, read-out: Percent Control
T12 construct: purchased Eurofins DiscoverX KINOMEscan
From the text: as §1

p38-delta = molecular target: T13, p38-delta (Homo sapiens, UniProt O15264); assay: KINOMEscan at 1 μM, p38-delta; type: binding; details: 1000 nM, read-out: Percent Control
T13 construct: purchased Eurofins DiscoverX KINOMEscan
From the text: as §1

CHEK2 = molecular target: T14, CHEK2 (Homo sapiens, UniProt O96017); assay: KINOMEscan at 1 μM, CHEK2; type: binding; details: 1000 nM, read-out: Percent Control
T14 construct: purchased Eurofins DiscoverX KINOMEscan
From the text: as §1

FLT3(ITD,D835V) = assay: KINOMEscan binding assay at 1 μM, FLT3(ITD,D835V); parameters: species or system human; details: Compound Concentration 1000 nM
From the text: as §1

MLCK = molecular target: T15, MLCK (Homo sapiens, UniProt Q32MK0); assay: KINOMEscan binding assay at 1 μM, MLCK; details: Compound Concentration 1000 nM; read-out: Percent Control
T15 construct: purchased Eurofins DiscoverX KINOMEscan
From the text: as §1

PAK2 = molecular target: T16, PAK2 (Homo sapiens, UniProt Q13177); assay: KINOMEscan 1 μM, PAK2; type: binding; details: 1000 nM; Entrez PAK2; read-out: Percent Control
T16 construct: purchased Eurofins DiscoverX KINOMEscan
From the text: (§2) Supplement cells-12-00287-s001.zip/File S2. KinomeScan data for the CAMKK2 probe and negative control.xlsx, sheet "SGC-CAMKK2-1" | column: Percent Control

CAMK1B = molecular target: T17, CAMK1B (Homo sapiens, UniProt Q6P2M8); assay: KINOMEscan 1 μM, CAMK1B; type: binding; details: 1000 nM; Entrez PNCK; read-out: Percent Control
T17 construct: purchased Eurofins DiscoverX KINOMEscan
From the text: as §2

EGFR(G719S) = molecular target: T18, EGFR(G719S) (Homo sapiens, UniProt P00533, G719S); assay: KINOMEscan 1 μM, EGFR(G719S); type: binding; details: 1000 nM; Entrez EGFR; read-out: Percent Control
T18 construct: purchased Eurofins DiscoverX KINOMEscan
From the text: as §2

MAK = molecular target: T19, MAK (Homo sapiens, UniProt P20794); assay: KINOMEscan 1 μM, MAK; type: binding; details: 1000 nM; Entrez MAK; read-out: Percent Control
T19 construct: purchased Eurofins DiscoverX KINOMEscan
From the text: as §2

CASK = molecular target: T20, CASK (Homo sapiens, UniProt O14936); assay: KINOMEscan 1 μM, CASK; type: binding; details: 1000 nM; Entrez CASK; read-out: Percent Control
T20 construct: purchased Eurofins DiscoverX KINOMEscan
From the text: as §2

PIKFYVE = molecular target: T21, PIKFYVE (Homo sapiens, UniProt Q9Y2I7); assay: KINOMEscan 1 μM, PIKFYVE; type: binding; details: 1000 nM; Entrez PIKFYVE; read-out: Percent Control
T21 construct: purchased Eurofins DiscoverX KINOMEscan
From the text: as §2

ACVR1 = molecular target: T22, ACVR1 (Homo sapiens, UniProt Q04771); assay: KINOMEscan 1 μM, ACVR1; type: binding; details: 1000 nM; Entrez ACVR1; read-out: Percent Control
T22 construct: purchased Eurofins DiscoverX KINOMEscan
From the text: as §2

MUSK = molecular target: T23, MUSK (Homo sapiens, UniProt O15146); assay: KINOMEscan 1 μM, MUSK; type: binding; details: 1000 nM; Entrez MUSK; read-out: Percent Control
T23 construct: purchased Eurofins DiscoverX KINOMEscan
From the text: as §2

ROS1 = molecular target: T24, ROS1 (Homo sapiens, UniProt P08922); assay: KINOMEscan 1 μM, ROS1; type: binding; details: 1000 nM; Entrez ROS1; read-out: Percent Control
T24 construct: purchased Eurofins DiscoverX KINOMEscan
From the text: as §2

DMPK = molecular target: T25, DMPK (Homo sapiens, UniProt Q09013); assay: KINOMEscan 1 μM, DMPK; type: binding; details: 1000 nM; Entrez DMPK; read-out: Percent Control
T25 construct: purchased Eurofins DiscoverX KINOMEscan
From the text: as §2

[1] = molecular target: T26, ABL1(F317I)-nonphosphorylated (Homo sapiens, UniProt P00519, F317I); assay: KINOMEscan 1 μM, ABL1(F317I)-nonphosphorylated; type: binding; details: 1000 nM; Entrez ABL1; read-out: Percent Control
T26 construct: purchased Eurofins DiscoverX KINOMEscan
From the text: as §2

EGFR(E746-A750del) = molecular target: T27, EGFR(E746-A750del) (Homo sapiens, UniProt P00533, DEL746-750); assay: KINOMEscan 1 μM, EGFR(E746-A750del); type: binding; details: 1000 nM; Entrez EGFR; read-out: Percent Control
T27 construct: purchased Eurofins DiscoverX KINOMEscan
From the text: as §2

EPHA7 = molecular target: T28, EPHA7 (Homo sapiens, UniProt Q15375); assay: KINOMEscan 1 μM, EPHA7; type: binding; details: 1000 nM; Entrez EPHA7; read-out: Percent Control
T28 construct: purchased Eurofins DiscoverX KINOMEscan
From the text: as §2

IRAK1 = molecular target: T29, IRAK1 (Homo sapiens, UniProt P51617); assay: KINOMEscan 1 μM, IRAK1; type: binding; details: 1000 nM; Entrez IRAK1; read-out: Percent Control
T29 construct: purchased Eurofins DiscoverX KINOMEscan
From the text: as §2

MEK4 = molecular target: T30, MEK4 (Homo sapiens, UniProt P45985); assay: KINOMEscan 1 μM, MEK4; type: binding; details: 1000 nM; Entrez MAP2K4; read-out: Percent Control
T30 construct: purchased Eurofins DiscoverX KINOMEscan
From the text: as §2

TNK1 = molecular target: T31, TNK1 (Homo sapiens, UniProt Q13470); assay: DiscoverX KINOMEscan binding assay at 1 μM, TNK1; details: Compound Concentration 1000 nM, read-out: Percent Control
T31 construct: purchased Eurofins DiscoverX KINOMEscan
From the text: as §2

TYRO3 = molecular target: T32, TYRO3 (Homo sapiens, UniProt Q06418); assay: DiscoverX KINOMEscan binding assay at 1 μM, TYRO3; details: Compound Concentration 1000 nM, read-out: Percent Control
T32 construct: purchased Eurofins DiscoverX KINOMEscan
From the text: as §2

YSK1 = molecular target: T33, YSK1 (Homo sapiens, UniProt O00506); assay: DiscoverX KINOMEscan binding assay at 1 μM, YSK1; details: YSK1 (STK25); Compound Concentration 1000 nM; read-out: Percent Control
T33 construct: purchased Eurofins DiscoverX KINOMEscan
From the text: as §2

T23 sequence (O15146 24-869): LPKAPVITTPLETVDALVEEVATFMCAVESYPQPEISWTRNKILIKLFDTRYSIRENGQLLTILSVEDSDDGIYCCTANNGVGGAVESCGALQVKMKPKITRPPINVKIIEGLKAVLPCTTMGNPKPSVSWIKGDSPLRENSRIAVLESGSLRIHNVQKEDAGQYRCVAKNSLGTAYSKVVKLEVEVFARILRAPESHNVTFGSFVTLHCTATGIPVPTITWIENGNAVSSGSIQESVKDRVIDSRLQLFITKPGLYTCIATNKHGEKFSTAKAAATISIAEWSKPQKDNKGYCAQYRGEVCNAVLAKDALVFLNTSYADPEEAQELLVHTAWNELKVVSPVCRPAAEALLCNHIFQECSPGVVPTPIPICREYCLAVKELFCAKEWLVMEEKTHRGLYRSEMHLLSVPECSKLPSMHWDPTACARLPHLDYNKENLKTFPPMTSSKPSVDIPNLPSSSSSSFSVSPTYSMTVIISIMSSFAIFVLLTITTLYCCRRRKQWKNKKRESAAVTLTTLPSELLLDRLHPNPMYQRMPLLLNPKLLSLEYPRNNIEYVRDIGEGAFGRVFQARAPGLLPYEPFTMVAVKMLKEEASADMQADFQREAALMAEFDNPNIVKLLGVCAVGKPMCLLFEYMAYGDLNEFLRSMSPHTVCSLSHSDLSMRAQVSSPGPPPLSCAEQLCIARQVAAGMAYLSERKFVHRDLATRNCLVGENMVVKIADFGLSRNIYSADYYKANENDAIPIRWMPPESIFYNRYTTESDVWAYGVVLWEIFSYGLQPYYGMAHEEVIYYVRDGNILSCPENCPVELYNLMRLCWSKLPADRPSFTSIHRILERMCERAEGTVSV
T19 sequence (P20794 whole entry): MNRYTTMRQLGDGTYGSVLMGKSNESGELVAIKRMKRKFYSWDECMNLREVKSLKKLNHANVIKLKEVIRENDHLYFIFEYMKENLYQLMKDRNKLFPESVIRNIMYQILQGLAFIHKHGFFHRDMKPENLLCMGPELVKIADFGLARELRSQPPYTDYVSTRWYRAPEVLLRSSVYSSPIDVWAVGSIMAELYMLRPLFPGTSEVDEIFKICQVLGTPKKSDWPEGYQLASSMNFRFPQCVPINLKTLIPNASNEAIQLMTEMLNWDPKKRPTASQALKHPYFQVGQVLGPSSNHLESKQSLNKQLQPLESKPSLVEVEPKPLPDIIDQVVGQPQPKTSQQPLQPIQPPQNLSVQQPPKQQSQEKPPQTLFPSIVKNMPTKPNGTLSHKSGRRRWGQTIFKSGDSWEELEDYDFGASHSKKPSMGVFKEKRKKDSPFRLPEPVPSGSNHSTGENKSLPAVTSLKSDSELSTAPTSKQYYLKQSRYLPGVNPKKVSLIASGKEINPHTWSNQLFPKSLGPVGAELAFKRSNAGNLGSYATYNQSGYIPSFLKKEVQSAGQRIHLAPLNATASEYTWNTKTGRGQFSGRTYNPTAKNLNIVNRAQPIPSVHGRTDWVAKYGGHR
T10 sequence (P53671 whole entry): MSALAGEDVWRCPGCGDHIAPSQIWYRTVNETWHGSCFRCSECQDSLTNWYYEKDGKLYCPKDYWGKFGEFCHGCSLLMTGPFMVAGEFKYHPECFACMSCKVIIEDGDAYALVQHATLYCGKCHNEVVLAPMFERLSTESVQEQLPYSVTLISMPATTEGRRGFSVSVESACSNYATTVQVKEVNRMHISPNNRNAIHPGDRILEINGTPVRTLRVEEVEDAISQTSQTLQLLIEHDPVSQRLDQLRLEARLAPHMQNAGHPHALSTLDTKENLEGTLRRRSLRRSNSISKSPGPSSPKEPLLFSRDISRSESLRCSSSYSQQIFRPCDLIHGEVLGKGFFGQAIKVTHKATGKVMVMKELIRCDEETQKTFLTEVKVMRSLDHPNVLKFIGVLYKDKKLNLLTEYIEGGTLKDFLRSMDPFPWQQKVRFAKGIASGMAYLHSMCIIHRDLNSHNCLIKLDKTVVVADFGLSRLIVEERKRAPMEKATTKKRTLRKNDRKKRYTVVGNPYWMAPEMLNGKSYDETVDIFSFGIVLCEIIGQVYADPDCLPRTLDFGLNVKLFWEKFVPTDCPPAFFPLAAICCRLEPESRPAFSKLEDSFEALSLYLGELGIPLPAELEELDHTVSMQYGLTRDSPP
T32 sequence (Q06418 41-890): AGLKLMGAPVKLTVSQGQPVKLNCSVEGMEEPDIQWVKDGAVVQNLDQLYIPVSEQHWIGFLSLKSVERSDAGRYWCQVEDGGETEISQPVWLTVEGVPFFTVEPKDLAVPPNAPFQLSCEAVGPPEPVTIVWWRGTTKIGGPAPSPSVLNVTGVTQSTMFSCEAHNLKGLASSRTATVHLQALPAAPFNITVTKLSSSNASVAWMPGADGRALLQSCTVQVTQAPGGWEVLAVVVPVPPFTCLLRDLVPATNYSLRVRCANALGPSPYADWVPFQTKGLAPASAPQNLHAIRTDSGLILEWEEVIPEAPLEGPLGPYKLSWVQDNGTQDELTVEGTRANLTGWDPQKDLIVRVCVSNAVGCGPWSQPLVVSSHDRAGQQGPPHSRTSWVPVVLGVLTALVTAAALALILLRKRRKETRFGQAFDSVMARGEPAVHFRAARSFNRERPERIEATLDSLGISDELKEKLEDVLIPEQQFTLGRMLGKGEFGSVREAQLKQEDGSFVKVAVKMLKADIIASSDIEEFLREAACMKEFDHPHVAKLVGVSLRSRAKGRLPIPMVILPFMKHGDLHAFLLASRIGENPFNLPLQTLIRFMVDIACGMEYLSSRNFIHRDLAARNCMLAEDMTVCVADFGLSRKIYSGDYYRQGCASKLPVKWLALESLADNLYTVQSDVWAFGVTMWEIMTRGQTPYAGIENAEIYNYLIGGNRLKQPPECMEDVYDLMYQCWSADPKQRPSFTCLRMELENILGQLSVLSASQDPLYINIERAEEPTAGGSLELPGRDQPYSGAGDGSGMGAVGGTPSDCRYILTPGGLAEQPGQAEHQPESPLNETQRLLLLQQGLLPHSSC
T30 sequence (P45985 whole entry): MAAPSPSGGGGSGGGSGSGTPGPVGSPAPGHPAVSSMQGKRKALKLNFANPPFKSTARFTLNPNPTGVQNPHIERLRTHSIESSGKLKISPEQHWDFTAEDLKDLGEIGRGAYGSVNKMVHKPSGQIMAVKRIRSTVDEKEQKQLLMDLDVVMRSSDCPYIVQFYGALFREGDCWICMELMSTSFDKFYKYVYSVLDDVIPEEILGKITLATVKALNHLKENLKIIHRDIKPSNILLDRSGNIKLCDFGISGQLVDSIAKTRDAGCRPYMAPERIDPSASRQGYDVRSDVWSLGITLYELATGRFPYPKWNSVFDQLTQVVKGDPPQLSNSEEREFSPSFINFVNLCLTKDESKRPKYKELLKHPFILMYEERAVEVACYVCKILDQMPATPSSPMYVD
T2 sequence (Q9UBF8 whole entry): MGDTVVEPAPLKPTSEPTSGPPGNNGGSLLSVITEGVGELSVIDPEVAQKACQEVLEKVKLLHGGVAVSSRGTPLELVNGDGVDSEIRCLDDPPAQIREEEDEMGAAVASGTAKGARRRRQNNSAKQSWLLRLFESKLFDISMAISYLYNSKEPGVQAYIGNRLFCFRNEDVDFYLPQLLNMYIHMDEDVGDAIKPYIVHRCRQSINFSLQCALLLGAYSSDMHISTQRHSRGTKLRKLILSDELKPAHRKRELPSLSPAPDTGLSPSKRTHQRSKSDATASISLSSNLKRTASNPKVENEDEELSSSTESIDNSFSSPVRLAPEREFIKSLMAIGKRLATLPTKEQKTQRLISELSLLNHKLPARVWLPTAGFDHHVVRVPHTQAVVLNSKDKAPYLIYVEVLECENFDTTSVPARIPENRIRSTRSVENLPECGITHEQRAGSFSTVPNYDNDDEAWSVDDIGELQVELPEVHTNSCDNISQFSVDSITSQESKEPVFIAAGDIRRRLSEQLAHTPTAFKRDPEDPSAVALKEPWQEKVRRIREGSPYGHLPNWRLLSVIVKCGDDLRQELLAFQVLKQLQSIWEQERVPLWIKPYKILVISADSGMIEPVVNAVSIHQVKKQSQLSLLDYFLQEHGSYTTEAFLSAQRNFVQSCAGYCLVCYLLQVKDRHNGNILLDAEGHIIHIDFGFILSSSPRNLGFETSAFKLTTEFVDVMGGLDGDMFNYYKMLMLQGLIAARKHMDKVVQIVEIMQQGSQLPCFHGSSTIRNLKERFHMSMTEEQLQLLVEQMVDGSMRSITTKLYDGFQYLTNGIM
T5 sequence (P21127 whole entry): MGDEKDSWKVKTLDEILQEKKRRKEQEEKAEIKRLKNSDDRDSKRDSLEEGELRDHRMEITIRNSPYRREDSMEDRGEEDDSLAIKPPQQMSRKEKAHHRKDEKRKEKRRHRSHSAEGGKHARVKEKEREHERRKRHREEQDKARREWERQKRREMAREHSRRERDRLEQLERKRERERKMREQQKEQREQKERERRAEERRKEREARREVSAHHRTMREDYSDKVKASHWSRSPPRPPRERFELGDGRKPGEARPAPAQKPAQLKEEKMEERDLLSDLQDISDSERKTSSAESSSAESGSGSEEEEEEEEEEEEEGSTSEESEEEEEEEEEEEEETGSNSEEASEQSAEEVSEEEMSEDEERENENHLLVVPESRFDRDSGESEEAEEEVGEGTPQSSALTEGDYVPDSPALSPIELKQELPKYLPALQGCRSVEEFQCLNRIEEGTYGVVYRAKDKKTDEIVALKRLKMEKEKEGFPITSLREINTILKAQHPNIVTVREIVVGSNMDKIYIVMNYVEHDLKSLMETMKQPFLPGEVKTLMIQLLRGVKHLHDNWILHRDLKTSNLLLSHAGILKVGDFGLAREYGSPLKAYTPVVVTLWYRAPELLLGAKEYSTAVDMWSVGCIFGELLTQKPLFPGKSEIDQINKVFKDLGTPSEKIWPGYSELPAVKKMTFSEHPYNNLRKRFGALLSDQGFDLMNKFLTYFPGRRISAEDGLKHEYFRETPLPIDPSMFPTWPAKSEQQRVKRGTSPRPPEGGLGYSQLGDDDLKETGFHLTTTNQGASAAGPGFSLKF

## O=C(O)c1ccc(-c2coc3ncc(-c4ccccc4)cc23)cc1Cl [SGC-CAMKK2-1N (UNC-YL-83)]
PAK1
  remaining binding at 1 µM: 42%
PIK4CB
  remaining binding at 1 µM: 54%
WNK1
  remaining binding at 1 µM: 66%
SgK110
  remaining binding at 1 µM: 69%
CDC2L1
  remaining binding at 1 µM: 72%
STK39
  remaining binding at 1 µM: 77%
p38-alpha
  remaining binding at 1 µM: 79%
PLK1
  remaining binding at 1 µM: 79%
MAP4K3
  remaining binding at 1 µM: 91%
LIMK2
  remaining binding at 1 µM: 92%
MAP4K4
  remaining binding at 1 µM: 94%
CSNK1G1
  remaining binding at 1 µM: 95%
p38-delta
  remaining binding at 1 µM: 98%
CHEK2
  remaining binding at 1 µM: 100%
FLT3(ITD,D835V)
  Percent Control: 100%
MLCK
  remaining binding at 1 µM: 100%

## Cc1cccc(-c2cnc3occ(-c4ccc(C(=O)O)c(C5CCCC5)c4)c3c2)c1 [SGC-CAMKK2-1 (YL-36)]
PAK2
  remaining binding at 1 µM: 55%
CAMK1B
  remaining binding at 1 µM: 64%
EGFR(G719S)
  remaining binding at 1 µM: 77%
MAK
  remaining binding at 1 µM: 78%
CASK
  remaining binding at 1 µM: 79%
PIKFYVE
  remaining binding at 1 µM: 80%
ACVR1
  remaining binding at 1 µM: 83%
MUSK
  remaining binding at 1 µM: 84%
ROS1
  remaining binding at 1 µM: 84%
DMPK
  remaining binding at 1 µM: 92%
[1]
  remaining binding at 1 µM: 100%
EGFR(E746-A750del)
  remaining binding at 1 µM: 100%
EPHA7
  remaining binding at 1 µM: 100%
IRAK1
  remaining binding at 1 µM: 100%
MEK4
  remaining binding at 1 µM: 100%
TNK1
  remaining binding at 1 µM: 100%
TYRO3
  remaining binding at 1 µM: 100%
YSK1
  remaining binding at 1 µM: 100%
